# Marks after values point to notes of the source that are not given here.
# Legend:
# Assay type in all cases: in vivo
# [1] = tested on: Floratam St. Augustine grass; assay: Phytotoxicity rating, St. Augustine grass (Example 9); conditions: for Phytotoxicity - St. Augustine Grass: scale 0-5, 5=worst
# Description: In this Example, the effect of a fertilizer comprising lysine on warn season turfgrass growth was examined. The effects of lysine (HCl) and LIQUID LYSINE on a common type of lawn quality turfgrass (St. Augustine grass) were compared with those of urea and Milorganite. St. Augustine grass is a commonly utilized turfgrass throughout the warm, tropical zones for lawn turf and is a commercially significant species.
# Twelve fertilizer treatments comprising three concentrations of each fertilizer composition (Milorganite (N—P—K, 6-2-0), urea N—P—K, 46-0-0), LIQUID LYSINE (N—P—K, 10-2-1), and lysine (HCl) (N—P—K, 15-2-1)) were prepared and applied to 4 replications of Floratam St. Augustine grass. The lysine (HCl) was dissolved in water prior to application. Each fertilizer treatment was applied in concentrations of 0.5 lb N/1000 ft^2/month, 1.0 lb N/1000 ft^2/month and 3.0 lb N/1000 ft^2/month. The urea, LIQUID LYSINE and lysine (HCl) were applied as foliar liquids, while Milorganite was applied as a granular fertilizer. Plot size was 1 m×2 m set up as a randomized complete block. Plots were mowed at 3.0 inches before fertilizer application. Irrigation (0.15 inch) was applied following application. Plots were rated for turfgrass quality and color (scale of 1-10 where 10=dark green turf, 1=dead/brown turf; and 6=minimally acceptable turf) and phytotoxicity (scale of 0-5, where 5=worst, and 2=minimally objectionable) throughout the study period. Quality, color, and phytotoxicity were measured on 2 days before application (day −2) and day 2, day 5, day 15 and day 21 after application. All data was subject to statistical analysis and significant means were determined. Average turfgrass quality ratings for the treatments are presented in Table 6 and the quality results for application rates of 1.0 lb N/1000 ft^2/month are graphically presented in FIG. 2.
# [2] = tested on: Pennlinks creeping bentgrass for greens; assay: Phytotoxic injury rating, greens creeping bentgrass (Example 16)
# Description: In this Example, the effect of a fertilizer comprising lysine on cool season greens quality turfgrass growth was examined. The effects of lysine (HCl) and LIQUID LYSINE on a common type of golf course greens quality turfgrass (Pennlinks creeping bentgrass for greens, mown at 0.1875 in height of cut) were compared with those of urea, Milorganite and a blended fertilizer (a blend of methylene urea and urea in an approximately 1:1 ratio).
# Fifteen fertilizer treatments comprising three concentrations of each fertilizer composition (Milorganite (N—P—K, 6-2-0), urea (N—P—K, 46-0-0), a blended fertilizer, LIQUID LYSINE N—P—K, 10-2-1), and lysine (HCl) (N—P—K, 15-2-1)) were prepared and applied to 3 replications of well established Pennlinks creeping bentgrass mown to 0.1875 in height cut. The urea, lysine (HCl), and LIQUID LYSINE were dissolved/suspended in 1.5 gal water prior to application. Each fertilizer treatment was applied in concentrations of 0.125 lb N/1000 ft^2/week, 0.250 lb N/1000 ft^2/week and 0.750 lb N/1000 ft^2/week. The urea, LIQUID LYSINE and lysine (HCl) were applied as foliar liquids, while Milorganite and blended fertilizer were applied as granular fertilizers. Plot size was 4 ft×8 ft laid out in a replicated complete block design. Plots were mowed at 0.1875 inches height before fertilizer application and mowed five times per week to 0.1875 inch height. Grass clippings were removed from the plots after each mowing. Irrigation (0.15 inch) was applied following application and daily thereafter. Plots were rated for turfgrass quality (scale of 1-9 where 9=dark green turf, 1=dead/brown turf, and 6=minimally acceptable turf) and phytotoxic injury (scale of 0-9 where 9=significant foliar injury and 2=minimally objectionable foliar injury) throughout the study period. Quality was measured prior to application (day 0) and day 37, day 70 and day 95 after application. Injury was measured on day 37, day 70 and day 95 after application. Ai) additional set of turfgrass plots were fertilized with three treatments of a soy concentrate fertilizer with the same application rates and methods. The quality and phytotoxic injury of the soy concentrate fertilizer plots were measured on day 95. All data was subject to statistical analysis and significant means were determined.
# [3] = tested on: green height, creeping bentgrass; assay: Color rating of green height creeping bentgrass after fertilization (Example 4); conditions: about two weeks after application
# Description: In this Example, the efficacy of fertilizers on green height, creeping bentgrass was examined. Fertilizer compositions according to several embodiments of the present disclosure were prepared and compared to the commercial fertilizer products, urea 46-0-0 (granular) fertilizer, Lebanon fertilizer 21-0-12 (granular, commercially available from Lebanon Seaboard Corporation, Lebanon, Pa.) and Milorganite 6-2-0 (granular, commercially available from Milorganite, Milwaukee, Wis.). The fertilizer compositions were applied to the turf grass prior to winter dormancy of the turf at a rate equivalent to supplying about 1.0 pounds of nitrogen (N) per 1000 square feet. Each of the fertilizer compositions were applied at substantially equal rates of pounds (lbs) of nitrogen (N) per 1000 square feet. Table 1 illustrates the response of green height (i.e., the height of grass on golf course green), creeping bentgrass to fertilization using various exemplary fertilizers of the present invention, taken about two weeks after application of the fertilizer. The letters in the Color and Injury columns correspond to Duncan's Multiple Range Test. Numbers (means) in a column followed by the same letter are not statistically different at P=0.05.
# [4] = Monthly Rate 0.5 lbs N/1000 ft^2, Day 2
# [5] = Monthly Rate 0.5 lbs N/1000 ft^2, Day 5
# [6] = Monthly Rate 0.5 lbs N/1000 ft^2, Day 15
# [7] = Monthly Rate 0.5 lbs N/1000 ft^2, Day 21
# [8] = Monthly Rate 0.5 lbs N/1000 ft^2, Day −2 (before application)
# [9] = Monthly Rate 1.0 lbs N/1000 ft^2, Day 2
# [10] = Monthly Rate 1.0 lbs N/1000 ft^2, Day 5
# [11] = Monthly Rate 1.0 lbs N/1000 ft^2, Day 15
# [12] = Monthly Rate 1.0 lbs N/1000 ft^2, Day 21
# [13] = Monthly Rate 1.0 lbs N/1000 ft^2, Day −2 (before application)
# [14] = Monthly Rate 3.0 lbs N/1000 ft^2, Day 2
# [15] = Monthly Rate 3.0 lbs N/1000 ft^2, Day 5
# [16] = Monthly Rate 3.0 lbs N/1000 ft^2, Day 15
# [17] = Monthly Rate 3.0 lbs N/1000 ft^2, Day 21
# [18] = Monthly Rate 3.0 lbs N/1000 ft^2, Day −2 (before application)
# [19] = Weekly Rate 0.125 lbs N/1000 ft^2, Day 37
# [20] = Weekly Rate 0.125 lbs N/1000 ft^2, Day 70
# [21] = Weekly Rate 0.125 lbs N/1000 ft^2, Day 95
# [22] = Weekly Rate 0.25 lbs N/1000 ft^2, Day 37
# [23] = Weekly Rate 0.25 lbs N/1000 ft^2, Day 70
# [24] = Weekly Rate 0.25 lbs N/1000 ft^2, Day 95
# [25] = Weekly Rate 0.75 lbs N/1000 ft^2, Day 37
# [26] = Weekly Rate 0.75 lbs N/1000 ft^2, Day 70
# [27] = Weekly Rate 0.75 lbs N/1000 ft^2, Day 95
Compound,"Phytotoxicity - St. Augustine Grass [1, 4]","Phytotoxicity - St. Augustine Grass [1, 5]","Phytotoxicity - St. Augustine Grass [1, 6]","Phytotoxicity - St. Augustine Grass [1, 7]","Phytotoxicity - St. Augustine Grass [1, 8]","Phytotoxicity - St. Augustine Grass [1, 9]","Phytotoxicity - St. Augustine Grass [1, 10]","Phytotoxicity - St. Augustine Grass [1, 11]","Phytotoxicity - St. Augustine Grass [1, 12]","Phytotoxicity - St. Augustine Grass [1, 13]","Phytotoxicity - St. Augustine Grass [1, 14]","Phytotoxicity - St. Augustine Grass [1, 15]","Phytotoxicity - St. Augustine Grass [1, 16]","Phytotoxicity - St. Augustine Grass [1, 17]","Phytotoxicity - St. Augustine Grass [1, 18]","Injury Rating - Greens Bentgrass [2, 19]","Injury Rating - Greens Bentgrass [2, 20]","Injury Rating - Greens Bentgrass [2, 21]","Injury Rating - Greens Bentgrass [2, 22]","Injury Rating - Greens Bentgrass [2, 23]",other results
"Cl.NCCCC[C@H](N)C(=O)O [Lys (HCl) 15% N, L-lysine monohydrochloride]",0.0c,0.4cd,0,0,0,0.0c,1.1bcd,0,0,0,0.4bc,1.1bcd,0,0,0,1.0b,1.0,2.3ab,1.0b,1.0,"Injury Rating - Greens Bentgrass [2, 24]: 2.7ab; Injury Rating - Greens Bentgrass [2, 25]: 2.0a; Injury Rating - Greens Bentgrass [2, 26]: 1.3; Injury Rating - Greens Bentgrass [2, 27]: 2.3ab"
"NC(N)=O [Urea, urea, reference compound]",0.6bc,1.6bc,0,0,0,1.5b,2.0ab,0,0,0,2.8a,3.0a,0,0,0,1.0b,1.3,3.0ab,1.0b,1.0,"Color 1-9 (9 = dark green) ([3]; 1.09 Lbs. product/1000 square feet): 6.7^a,b,c; Color 1-9 (9 = dark green) ([3]; 2.17 Lbs. product/1000 square feet): 6.7^a,b,c; Color 1-9 (9 = dark green) ([3]; 6.51 Lbs. product/1000 square feet): 6.0^d,c; phytotoxicity ([1]; 1.0 lb N/1000 ft^2 and 3.0 lb N/1000 ft^2 application rate): some phytotoxicity; Injury Rating - Greens Bentgrass [2, 24]: 2.0ab; Injury Rating - Greens Bentgrass [2, 25]: 1.0b; Injury Rating - Greens Bentgrass [2, 26]: 1.0; Injury Rating - Greens Bentgrass [2, 27]: 2.7ab"

# — patent US7811352B2, “Fertilizer compositions and methods of using” (priority 2005, dated 2010)
